Measurements published in patent US7291621B2, “Substituted biaryl amides C5a receptor modulators” (Neurogen Corporation, priority 2002, dated 2007).

target: T1, C5a receptor (Homo sapiens, UniProt P21730); assay: standard assay of C5a receptor mediated calcium mobilization; assay type: cell-based; conditions: Table I; asterisk = tested in C5a receptor mediated calcium mobilization assay; read-out: Ca2+ Mob.
T1 construct: endogenous in cells; host or cells: U937 cells differentiated with 1 mM dibutyryl cAMP
T1 sequence (P21730 1-350): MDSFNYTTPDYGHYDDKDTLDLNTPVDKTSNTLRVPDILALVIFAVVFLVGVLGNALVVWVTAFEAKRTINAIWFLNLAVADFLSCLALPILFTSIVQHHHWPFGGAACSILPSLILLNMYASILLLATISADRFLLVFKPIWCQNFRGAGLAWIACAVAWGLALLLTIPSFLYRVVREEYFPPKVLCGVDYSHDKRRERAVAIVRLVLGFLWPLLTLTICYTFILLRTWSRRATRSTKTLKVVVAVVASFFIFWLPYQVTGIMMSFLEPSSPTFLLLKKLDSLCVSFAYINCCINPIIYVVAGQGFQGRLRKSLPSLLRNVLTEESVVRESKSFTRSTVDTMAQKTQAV
Procedure: U937 cells are grown in differentiation media (1 mM dibutyrl cAMP in RPMI 1640 medium containing 10% fetal bovine serum) for 48 hrs at 37° C. then reseeded onto 96-well plates suitable for use in a FLIPR™ Plate Reader (Molecular Devices Corp., Sunnyvale Calif.). Cells are grown an additional 24 hours (to 70-90% confluence) before the assay. The cells are then washed once with Krebs Ringer solution. FLUO-3 calcium sensitive dye (Molecular Probes, Inc. Eugene, Oreg.) is added to 10 μg/mL and incubated with the cells at room temperature for 1 to 2 hours. The 96 well plates are then washed to remove excess dye. Fluorescence responses, measured by excitation at 480 nm and emission at 530 nm, are monitored upon the addition of human C5a to the cells to a final concentration of 0.01-30.0 nM, using the FLIPR™ device (Molecular Devices).
The calcium mobilization assay described above may be readily adapted for identifying test compounds that have agonist or antagonist activity at the human C5a receptor.
For example, in order to identify antagonist compounds, differentiated U937 cells are washed and incubated with Fluo-3 dye as described above. One hour prior to measuring the fluorescence signal, a subset of the cells is incubated with 1 μM of at least one compound to be tested. The fluorescence response upon the subsequent addition of 0.3 nM (final concentration) human recombinant C5a is monitored using the FLIPR™ plate reader. Antagonist compounds elicit at least a 2-fold decrease in the fluorescence response relative to that measured in the presence of human C5a alone. Preferred antagonist compounds elicit at least a 5-fold, preferably at least a 10-fold, and more preferably at least a 20-fold decrease in the fluorescence response relative to that measured in the presence of human C5a alone.

Ki, < 1 µM:
O=C(c1ccccc1-c1ccc(F)cc1)N(Cc1ccccc1)Cc1ccccc1 [compound 34, N,N-dibenzyl4′-fluoro-1,1′-biphenyl-2-carboxamide]
CC(=O)Nc1cccc(-c2ccccc2C(=O)N(Cc2ccccc2)Cc2ccccc2)c1 [compound 35, 3′-(acetylamino)-N,N-dibenzyl-1,1′-biphenyl-2-carboxamide]
O=C(c1ccccc1-c1ccc(OC(F)(F)F)cc1)N(Cc1ccccc1)Cc1ccccc1 [compound 36, N,N-dibenzyl-4′-(trifluoromethoxy)-1,1′-biphenyl-2-carboxamide]
CSc1ccccc1-c1ccccc1C(=O)N(Cc1ccccc1)Cc1ccccc1 [compound 37, N,N-dibenzyl-2′-(methylthio)-1,1′-biphenyl-2-carboxamide]
CCSc1ccc(-c2ccccc2C(=O)N(Cc2ccccc2)Cc2ccccc2)cc1 [compound 38, N,N-dibenzyl-4′-(ethylthio)-1,1′-biphenyl-2-carboxamide]
O=C(c1ccccc1-c1cccc(F)c1)N(Cc1ccccc1)Cc1ccccc1 [compound 39, N,N-dibenzyl-3′-fluoro-1,1′-biphenyl-2-carboxamide]
Cc1ccc(-c2ccccc2C(=O)N(Cc2ccccc2)Cc2ccccc2)cc1C [compound 40, N,N-dibenzyl-3′,4′-dimethyl-1,1′-biphenyl-2-carboxamide]
O=C(c1ccccc1-c1ccsc1)N(Cc1ccccc1)Cc1ccccc1 [compound 41, N,N-dibenzyl-2-thien-3-ylbenzamide]
O=C(c1ccccc1-c1ccc(C(F)(F)F)cc1)N(Cc1ccccc1)Cc1ccccc1 [compound 42, N,N-dibenzyl-4′-(trifluoromethyl)-1,1′-biphenyl-2-carboxamide]
COc1ccccc1-c1ccccc1C(=O)N(Cc1ccccc1)Cc1ccccc1 [compound 43, N,N-dibenzyl-2′-methoxy-1,1′-biphenyl-2-carboxamide]
COc1ccc(-c2ccccc2C(=O)N(Cc2ccccc2)Cc2ccccc2)cc1 [compound 44, N,N-dibenzyl-4′-methoxy-1,1′-biphenyl-2-carboxamide]
COc1ccc(-c2ccccc2C(=O)N(Cc2ccccc2)Cc2ccccc2)c(OC)c1 [compound 45, N,N-dibenzyl-2′,4′-dimethoxy-1,1′-biphenyl-2-carboxamide]
COc1ccc(-c2ccccc2C(=O)N(Cc2ccccc2)Cc2ccccc2)cc1OC [compound 46, N,N-dibenzyl-3′,4 ′-dimethoxy-1,1′-biphenyl-2-carboxamide]
O=C(c1ccccc1-c1ccccc1)N(Cc1ccccc1)Cc1ccccc1 [compound 47, N,N-dibenzyl-1,1′-biphenyl-2-carboxamide]
O=C(c1ccccc1-c1ccccc1Cl)N(Cc1ccccc1)Cc1ccccc1 [compound 48, N,N-dibenzyl-2′-chloro-1,1′-biphenyl-2-carboxamide]
O=C(c1ccccc1-c1cccc(Cl)c1)N(Cc1ccccc1)Cc1ccccc1 [compound 49, N,N-dibenzyl-3′-chloro-1,1′-biphenyl-2-carboxamide]
O=C(c1ccccc1-c1ccc(Cl)cc1)N(Cc1ccccc1)Cc1ccccc1 [compound 50, N,N-dibenzyl-4′-chloro-1,1′-biphenyl-2-carboxamide]
O=C(c1ccccc1-c1cccc(Cl)c1Cl)N(Cc1ccccc1)Cc1ccccc1 [compound 51, N,N-dibenzyl-2′,3′-dichloro-1,1′-biphenyl-2-carboxamide]
O=C(c1ccccc1-c1ccc(Cl)cc1Cl)N(Cc1ccccc1)Cc1ccccc1 [compound 52, N,N-dibenzyl-2′,4′-dichloro-1,1′-biphenyl-2-carboxamide]
Cc1ccccc1-c1ccccc1C(=O)N(Cc1ccccc1)Cc1ccccc1 [compound 53, N,N-dibenzyl-2′-methyl-1,1′-biphenyl-2-carboxamide]
Cc1cccc(-c2ccccc2C(=O)N(Cc2ccccc2)Cc2ccccc2)c1 [compound 54, N,N-dibenzyl-3′-methyl-1,1′-biphenyl-2-carboxamide]
Cc1ccc(-c2ccccc2C(=O)N(Cc2ccccc2)Cc2ccccc2)cc1 [compound 55, N,N-dibenzyl-4′-methyl-1,1′-biphenyl-2-carboxamide]
O=C(c1ccccc1-c1cc(Cl)cc(Cl)c1)N(Cc1ccccc1)Cc1ccccc1 [compound 56, N,N-dibenzyl-3′,5′-dichloro-1,1′-biphenyl-2-carboxamide]
Cc1ccc(-c2ccccc2C(=O)N(Cc2ccccc2)C2Cc3ccccc3C2)cc1 [compound 58, N-benzyl-N-(indan-2-yl)4′-methyl-1,1′-biphenyl-2-carboxamide]
Cc1csc(-c2ccccc2C(=O)N(Cc2ccccc2)C2Cc3ccccc3C2)c1 [compound 59, N-benzyl-N-(indan-2-yl)-2-(4-methylthien-2-yl)benzamide]
O=C(c1ccccc1-c1ccccc1)N(Cc1ccccc1)C1Cc2ccccc2C1 [compound 60, N-benzyl-N-(indan-2-yl)-1,1′-biphenyl-2-carboxamide]
O=C(c1ccccc1-c1ccccc1F)N(Cc1ccccc1)C1CCc2ccccc21 (centres unmarked) [compound 61, N-benzyl-N-(indan-1-yl)-2′-fluoro-1,1′-biphenyl-2-carboxamide]
COc1cccc(-c2ccccc2C(=O)N(Cc2ccccc2)C2Cc3ccccc3C2)c1 [compound 62, N-benzyl-N-(indan-2-yl)-3′-methoxy-1,1′-biphenyl-2-carboxamide]
O=C(c1ccccc1-c1cccs1)N(Cc1ccccc1)C1Cc2ccccc2C1 [compound 63, N-benzyl-N-(indan-2-yl)-2-thien-2-ylbenzamide]
COc1cccc(-c2ccccc2C(=O)N(Cc2ccc3c(c2)OCO3)C2Cc3ccccc3C2)c1 [compound 64, N-(1,3-benzodioxol-5-ylmethyl)-N-(indan-2-yl)-3′-methoxy-1,1′-biphenyl-2-carboxamide]
O=C(c1cccc2c1-c1ccccc1C2)N(Cc1ccc2c(c1)OCO2)C1Cc2ccccc2C1 [compound 65, N-(1,3-benzodioxol-5-ylmethyl)-N-(indan-2-yl)-9H-fluorene-4-carboxamide]
COc1ccc(-c2ccccc2)c(C(=O)N(Cc2ccccc2)C2Cc3ccccc3C2)c1 [compound 66, N-benzyl-N-(indan-2-yl)-4-methoxy-1,1′-biphenyl-2-carboxamide]
COc1cccc(-c2ccccc2)c1C(=O)N(Cc1ccccc1)C1Cc2ccccc2C1 [compound 67, N-benzyl-N-(indan-2-yl)-3-methoxy-1,1′-biphenyl-2-carboxamide]
O=C(c1cc(O)ccc1-c1ccccc1)N(Cc1ccccc1)C1Cc2ccccc2C1 [compound 68, N-benzyl-N-(indan-2-yl)-4-hydroxy-1,1′-biphenyl-2-carboxamide]
O=C(c1c(O)cccc1-c1ccccc1)N(Cc1ccccc1)C1Cc2ccccc2C1 [compound 69, N-benzyl-N-(indan-2-yl)-3-hydroxy-1,1′-biphenyl-2-carboxamide]
COc1ccc(-c2ccc(C)s2)c(C(=O)N(Cc2ccccc2)C2Cc3ccccc3C2)c1 [compound 70, N-benzyl-N-(indan-2-yl)-5-methoxy-2-(5-methylthien-2-yl)benzamide]
COc1ccc2c(c1)CC(N(Cc1ccccc1)C(=O)c1ccccc1-c1ccccc1)C2 (centres unmarked) [compound 71, N-benzyl-N-(5-methoxy-indan-2-yl)-1,1′-biphenyl-2-carboxamide]
Cc1ccc2c(c1)CC(N(Cc1ccccc1)C(=O)c1ccccc1-c1ccccc1)C2 (centres unmarked) [compound 72, N-benzyl-N-(5-methyl-indan-2-yl)-1,1′-biphenyl-2-carboxamide]
Cc1ccccc1CN(C(=O)c1ccccc1-c1ccccc1)C1Cc2ccccc2C1 [compound 73, N-(indan-2-yl)-N-(2-methylbenzyl)-1,1′-biphenyl-2-carboxamide]
Cc1cccc(CN(C(=O)c2ccccc2-c2ccccc2)C2Cc3ccccc3C2)c1 [compound 74, N-(indan-2-yl)-N-(3-methylbenzyl)-1,1′-biphenyl-2-carboxamide]
Cc1ccc(CN(C(=O)c2ccccc2-c2ccccc2)C2Cc3ccccc3C2)cc1 [compound 75, N-(indan-2-yl)-N-(4-methylbenzyl)-1,1′-biphenyl-2-carboxamide]
